The values that follow come from PMC12022909, “A Multicomponent Reaction-Based Platform Opens New Avenues in Aryl Hydrocarbon Receptor Modulation” (ACS Central Science, 2025).

The test system of one data set is HaCaT cells. More on the design: method as in PMID 25431849, PMID 34418602. The note with it: cited from earlier work.
In another data set the target is T1, AhR-GFP (Homo sapiens, UniProt P35869).
T1 construct: host or cells: MCF7, lentiviral transduction
Put plainly: MCF7 AhR-GFP.IRES.mCherry reporter, flow cytometry quantification of AhR protein levels. The note with it: 5 μM, 5 h. The data set is classed as cell-based. The method, then:
(§1) Figure 6 Bifunctional AhR probes and AhR reporter in MCF7 cells. (a) Synthetic access to the conjugatable AhR ligand 5m. (b) Structure, yield, and EC50 value of the model amide 12a and MD simulation of AhR with 12a (last snapshot). (c) PROTAC-like compound 12b and dual probes 12c–d. Reaction conditions: (a) 5m (1 equiv), amine (1 equiv), HATU, DIPEA, DMF, rt, 24 h, Ar atm; (b) 5m (2 equiv), diamine (1 equiv), HATU, DIPEA, DMF, rt, 24 h, Ar atm. (d) General setup of the reporter system for quantifying AhR protein levels. (e) The population of MCF7 reporter cells (MCF7 AhR-GFP.IRES.mCherry) gated by flow cytometry and used for quantification of AhR. […] Values represent the ratio of the geometric mean of GFP and mCherry values in the gated population. (g) Change in protein levels relative to vehicle treatment (DMSO) in MCF7 cells treated with 12b at 10 μM for 5 h quantified by TMT labeling and LC/MS analysis versus p-Value. TEXT PRINTED IN THE PICTURE: (b) 12a: EC50 = 0.40 μM […]
To test the effect of these compounds on AhR abundance, we established a cellular reporter in the breast cancer cell line MCF7. AhR in this case is fused to GFP bearing an independently translated mCherry on the same transcript to allow correction for general transcriptional interference of treatments (Figure 6d,e). […]
For orientation: A flow cytometer gives signals particle by particle.

The next data set deals with T2, AhR (Homo sapiens, UniProt P35869).
T2 construct: Degradation of endogenous AhR was further confirmed via Western blotting and global proteomics measurements in cells treated with 12b; host or cells: MCF7
T2 sequence (P35869 11-848): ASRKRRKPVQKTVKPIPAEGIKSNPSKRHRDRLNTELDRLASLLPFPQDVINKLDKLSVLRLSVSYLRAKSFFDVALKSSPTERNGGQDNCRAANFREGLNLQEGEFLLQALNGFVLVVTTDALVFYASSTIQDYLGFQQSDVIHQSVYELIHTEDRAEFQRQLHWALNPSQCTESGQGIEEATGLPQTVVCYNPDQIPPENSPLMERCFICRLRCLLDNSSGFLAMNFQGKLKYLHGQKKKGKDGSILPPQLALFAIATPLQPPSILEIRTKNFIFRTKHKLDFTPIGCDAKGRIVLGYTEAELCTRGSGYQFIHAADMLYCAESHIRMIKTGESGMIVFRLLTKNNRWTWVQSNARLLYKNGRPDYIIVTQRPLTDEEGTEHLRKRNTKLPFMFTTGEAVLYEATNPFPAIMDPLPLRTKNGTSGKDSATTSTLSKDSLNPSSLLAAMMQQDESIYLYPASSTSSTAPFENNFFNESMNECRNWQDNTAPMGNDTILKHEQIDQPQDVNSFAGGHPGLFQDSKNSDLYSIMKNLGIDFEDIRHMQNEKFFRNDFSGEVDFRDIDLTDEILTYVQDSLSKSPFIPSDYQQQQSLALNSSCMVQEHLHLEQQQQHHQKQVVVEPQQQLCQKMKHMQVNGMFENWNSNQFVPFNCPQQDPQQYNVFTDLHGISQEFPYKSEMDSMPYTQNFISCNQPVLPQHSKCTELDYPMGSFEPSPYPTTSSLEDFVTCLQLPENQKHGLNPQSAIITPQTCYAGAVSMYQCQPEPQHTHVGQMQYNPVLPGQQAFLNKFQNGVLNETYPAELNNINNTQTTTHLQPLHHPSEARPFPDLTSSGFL
Put plainly: Global proteomics (TMT labeling, LC/MS) in MCF7 cells. It counts as cell-based. As to conditions: 10 μM, 5 h. The method, then: as §1
Generation of reporter cell lines
The MCF7.AhR-GFP.IRES.mCherry and MCF7.AhRdPasB(d275-342)-GFP.IRES.mCherryreporter cell line was generated via lentivirus transduction. The coding sequence of the full length AhR (NM_001621.5), as well as the PasB deleted AhR (d275-342) were synthesized and cloned into a Lenti virus transfer plasmid (Artichoke, Addgene #73320), with hereby the resistance was swapped from puromycin to hygromycin. To produce the virus, 550k Lenti-X 293T cells (Takeda #632180) were seeded in a six-well plate with 3 mL of growth medium. The following day, a plasmid solution containing psPAX2 (500 ng), pVSV-G (5 ng), and AhR transfer plasmid (500 ng) was diluted in 21.5 μL of OPTIMEM, reaching a total volume of 32.5 μL. […]
For the flow cytometry experiments 150k cells were seeded in a 24 well-plate format in 0.5 mL growing medium and left to grow in the incubator for 16 h. […] They were subsequently measured on a BD LSR II and the data analyzed with FlowJo software (version 10.5.3, TreeStar). […]

For data set [1], the target named is T3, aryl hydrocarbon receptor (AhR) (Homo sapiens, UniProt P35869).
T3 construct: AhR-dependent reporter gene activity was determined in human HepG2 cells stably transfected with an XRE; endogenous in cells; host or cells: XRE-HepG2 (human HepG2 hepatoma cells stably carrying an XRE-luciferase plasmid)
T3 sequence (P35869 11-848): T2 sequence (P35869 11-848)
The data set is described as follows: AhR/XRE-dependent luciferase reporter gene assay in XRE-HepG2 cells. The data set is classed as cell-based. The note with it: XRE-HepG2 cells, 8 h; unit as in the supplements; read-out: AhR/XRE-dependent luciferase activity EC50.

T1 sequence (P08238 whole entry partner, one chain of several): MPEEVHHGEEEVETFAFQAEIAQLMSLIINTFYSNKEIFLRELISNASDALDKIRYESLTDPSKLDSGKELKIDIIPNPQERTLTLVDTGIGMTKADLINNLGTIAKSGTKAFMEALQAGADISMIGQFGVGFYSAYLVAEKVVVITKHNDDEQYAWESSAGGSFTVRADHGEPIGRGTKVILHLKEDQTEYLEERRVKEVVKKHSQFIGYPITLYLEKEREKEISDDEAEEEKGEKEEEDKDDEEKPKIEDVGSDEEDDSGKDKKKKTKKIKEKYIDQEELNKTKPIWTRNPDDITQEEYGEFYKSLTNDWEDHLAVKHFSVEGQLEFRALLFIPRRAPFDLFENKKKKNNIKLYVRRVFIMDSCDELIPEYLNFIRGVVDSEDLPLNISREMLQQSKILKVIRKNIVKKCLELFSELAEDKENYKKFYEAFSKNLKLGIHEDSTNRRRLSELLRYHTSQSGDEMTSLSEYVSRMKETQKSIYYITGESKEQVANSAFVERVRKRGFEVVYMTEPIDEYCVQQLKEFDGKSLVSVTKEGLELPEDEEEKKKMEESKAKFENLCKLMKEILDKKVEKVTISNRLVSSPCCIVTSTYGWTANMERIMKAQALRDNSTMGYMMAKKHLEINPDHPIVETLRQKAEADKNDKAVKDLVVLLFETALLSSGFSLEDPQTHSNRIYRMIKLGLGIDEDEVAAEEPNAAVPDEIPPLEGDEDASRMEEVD
T1 sequence (O00170 whole entry partner, one chain of several): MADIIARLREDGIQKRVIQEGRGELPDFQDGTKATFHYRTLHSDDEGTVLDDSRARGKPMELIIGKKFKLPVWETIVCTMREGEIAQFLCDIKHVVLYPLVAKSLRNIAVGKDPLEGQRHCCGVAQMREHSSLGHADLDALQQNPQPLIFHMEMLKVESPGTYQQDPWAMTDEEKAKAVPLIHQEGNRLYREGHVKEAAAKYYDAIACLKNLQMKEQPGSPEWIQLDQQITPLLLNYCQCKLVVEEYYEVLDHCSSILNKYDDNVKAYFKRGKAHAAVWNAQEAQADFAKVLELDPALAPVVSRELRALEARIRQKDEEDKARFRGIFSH

Take 6-formylindolo[3,2-b]carbazole [FICZ]: in the data set with HaCaT cells, the UVA photosensitization entry is recorded as “nanomolar sensitizer for UVA radiation”.

Consider `O=C1CCC(N2C(=O)c3cccc(OCCOCCOCCOCCNC(=O)c4ccc5c(-c6c7[nH]c8ccccc8c7cc7[nH]c8ccccc8c67)c[nH]c5c4)c3C2=O)C(=O)N1` (stereo not drawn) [12b], for which, at AhR-GFP, the “AhR degradation in reporter system” value is listed as “pronounced AhR degradation”. Further, at AhR, the “degradation of common CRBN-thalidomide off-target factors (zinc finger proteins, GSPT1)” value is given as “absence of degradation”; the “induced transcriptional activity (CYP1A1 and CYP1B1 protein levels)” value is “upregulation of CYP1A1 and CYP1B1”; the “selectivity of protein degradation” value is given as “selectivity for AhR degradation”. Further, in data set [1], the EC50 was 200 nM.
